Assay results: PMC3530927 (Journal of medicinal chemistry, 2012)

How the values were obtained:
[1] = Snapshot in vivo PK, IP plasma and brain levels; settings: brain, 10 mg/kg
potassium channel (hERG) = potassium channel (hERG) (Homo sapiens, UniProt Q12809); experiment: Ricerca Lead Profiling Screen radioligand binding
calcium channel, N-type = calcium channel, N-type (Homo sapiens, UniProt Q00975); experiment: Ricerca Lead Profiling Screen radioligand binding
calcium channel, L-type = experiment: Ricerca Lead Profiling Screen radioligand binding
potassium channel (KATP) = experiment: Ricerca Lead Profiling Screen radioligand binding
Intrinsic clearance = assay type: in vitro ADME; settings: rat hepatic microsomes
KCNQ2 channels = KCNQ2 channels (Homo sapiens, UniProt O43526); experiment: KCNQ2 automated patch clamp assay; assay type: cell-based; settings: for inhibition at 30 µM: read-out: KCNQ2 % at 30 μM (IC50 column, saturating response not obtained); for fold loss of potency: KCNQ2 inhibitor, compared to the unsubstituted phenyl group (5)
[2] = >300 assays performed within the MLPCN network; settings: weakly active in each of four assays out of >300
[3] = KCNQ2, common assay system (PubChem AID: 588426) vs reported values

Sequence of potassium channel (hERG) (Q12809 whole entry): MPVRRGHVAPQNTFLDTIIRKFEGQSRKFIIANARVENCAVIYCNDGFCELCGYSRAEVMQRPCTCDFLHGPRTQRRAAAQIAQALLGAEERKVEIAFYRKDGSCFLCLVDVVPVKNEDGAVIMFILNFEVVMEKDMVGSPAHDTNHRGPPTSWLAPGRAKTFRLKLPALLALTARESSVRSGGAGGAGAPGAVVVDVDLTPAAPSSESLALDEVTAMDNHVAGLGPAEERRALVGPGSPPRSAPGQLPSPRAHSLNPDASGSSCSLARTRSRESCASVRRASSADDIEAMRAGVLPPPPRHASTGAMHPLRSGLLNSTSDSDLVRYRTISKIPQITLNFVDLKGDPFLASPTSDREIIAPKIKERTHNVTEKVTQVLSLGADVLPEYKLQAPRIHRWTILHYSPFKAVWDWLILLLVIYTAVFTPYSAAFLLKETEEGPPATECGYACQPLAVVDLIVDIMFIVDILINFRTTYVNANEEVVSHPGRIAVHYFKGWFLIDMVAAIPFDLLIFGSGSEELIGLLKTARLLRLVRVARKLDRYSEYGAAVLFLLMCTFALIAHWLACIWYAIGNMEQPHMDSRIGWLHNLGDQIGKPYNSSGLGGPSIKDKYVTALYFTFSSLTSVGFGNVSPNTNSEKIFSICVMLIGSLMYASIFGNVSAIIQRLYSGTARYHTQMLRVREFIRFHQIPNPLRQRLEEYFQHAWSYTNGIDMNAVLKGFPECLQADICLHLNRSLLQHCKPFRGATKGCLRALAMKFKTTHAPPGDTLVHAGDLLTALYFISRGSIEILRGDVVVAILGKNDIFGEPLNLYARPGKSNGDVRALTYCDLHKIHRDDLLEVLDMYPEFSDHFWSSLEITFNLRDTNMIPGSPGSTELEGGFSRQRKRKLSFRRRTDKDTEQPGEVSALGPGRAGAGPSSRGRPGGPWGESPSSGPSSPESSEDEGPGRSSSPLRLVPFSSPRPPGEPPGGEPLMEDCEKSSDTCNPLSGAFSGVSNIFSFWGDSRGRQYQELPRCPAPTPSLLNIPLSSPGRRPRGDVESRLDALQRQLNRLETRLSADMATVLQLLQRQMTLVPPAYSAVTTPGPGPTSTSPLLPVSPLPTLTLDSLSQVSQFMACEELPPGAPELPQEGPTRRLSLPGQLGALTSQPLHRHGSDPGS
Sequence of calcium channel, N-type (Q00975 whole entry): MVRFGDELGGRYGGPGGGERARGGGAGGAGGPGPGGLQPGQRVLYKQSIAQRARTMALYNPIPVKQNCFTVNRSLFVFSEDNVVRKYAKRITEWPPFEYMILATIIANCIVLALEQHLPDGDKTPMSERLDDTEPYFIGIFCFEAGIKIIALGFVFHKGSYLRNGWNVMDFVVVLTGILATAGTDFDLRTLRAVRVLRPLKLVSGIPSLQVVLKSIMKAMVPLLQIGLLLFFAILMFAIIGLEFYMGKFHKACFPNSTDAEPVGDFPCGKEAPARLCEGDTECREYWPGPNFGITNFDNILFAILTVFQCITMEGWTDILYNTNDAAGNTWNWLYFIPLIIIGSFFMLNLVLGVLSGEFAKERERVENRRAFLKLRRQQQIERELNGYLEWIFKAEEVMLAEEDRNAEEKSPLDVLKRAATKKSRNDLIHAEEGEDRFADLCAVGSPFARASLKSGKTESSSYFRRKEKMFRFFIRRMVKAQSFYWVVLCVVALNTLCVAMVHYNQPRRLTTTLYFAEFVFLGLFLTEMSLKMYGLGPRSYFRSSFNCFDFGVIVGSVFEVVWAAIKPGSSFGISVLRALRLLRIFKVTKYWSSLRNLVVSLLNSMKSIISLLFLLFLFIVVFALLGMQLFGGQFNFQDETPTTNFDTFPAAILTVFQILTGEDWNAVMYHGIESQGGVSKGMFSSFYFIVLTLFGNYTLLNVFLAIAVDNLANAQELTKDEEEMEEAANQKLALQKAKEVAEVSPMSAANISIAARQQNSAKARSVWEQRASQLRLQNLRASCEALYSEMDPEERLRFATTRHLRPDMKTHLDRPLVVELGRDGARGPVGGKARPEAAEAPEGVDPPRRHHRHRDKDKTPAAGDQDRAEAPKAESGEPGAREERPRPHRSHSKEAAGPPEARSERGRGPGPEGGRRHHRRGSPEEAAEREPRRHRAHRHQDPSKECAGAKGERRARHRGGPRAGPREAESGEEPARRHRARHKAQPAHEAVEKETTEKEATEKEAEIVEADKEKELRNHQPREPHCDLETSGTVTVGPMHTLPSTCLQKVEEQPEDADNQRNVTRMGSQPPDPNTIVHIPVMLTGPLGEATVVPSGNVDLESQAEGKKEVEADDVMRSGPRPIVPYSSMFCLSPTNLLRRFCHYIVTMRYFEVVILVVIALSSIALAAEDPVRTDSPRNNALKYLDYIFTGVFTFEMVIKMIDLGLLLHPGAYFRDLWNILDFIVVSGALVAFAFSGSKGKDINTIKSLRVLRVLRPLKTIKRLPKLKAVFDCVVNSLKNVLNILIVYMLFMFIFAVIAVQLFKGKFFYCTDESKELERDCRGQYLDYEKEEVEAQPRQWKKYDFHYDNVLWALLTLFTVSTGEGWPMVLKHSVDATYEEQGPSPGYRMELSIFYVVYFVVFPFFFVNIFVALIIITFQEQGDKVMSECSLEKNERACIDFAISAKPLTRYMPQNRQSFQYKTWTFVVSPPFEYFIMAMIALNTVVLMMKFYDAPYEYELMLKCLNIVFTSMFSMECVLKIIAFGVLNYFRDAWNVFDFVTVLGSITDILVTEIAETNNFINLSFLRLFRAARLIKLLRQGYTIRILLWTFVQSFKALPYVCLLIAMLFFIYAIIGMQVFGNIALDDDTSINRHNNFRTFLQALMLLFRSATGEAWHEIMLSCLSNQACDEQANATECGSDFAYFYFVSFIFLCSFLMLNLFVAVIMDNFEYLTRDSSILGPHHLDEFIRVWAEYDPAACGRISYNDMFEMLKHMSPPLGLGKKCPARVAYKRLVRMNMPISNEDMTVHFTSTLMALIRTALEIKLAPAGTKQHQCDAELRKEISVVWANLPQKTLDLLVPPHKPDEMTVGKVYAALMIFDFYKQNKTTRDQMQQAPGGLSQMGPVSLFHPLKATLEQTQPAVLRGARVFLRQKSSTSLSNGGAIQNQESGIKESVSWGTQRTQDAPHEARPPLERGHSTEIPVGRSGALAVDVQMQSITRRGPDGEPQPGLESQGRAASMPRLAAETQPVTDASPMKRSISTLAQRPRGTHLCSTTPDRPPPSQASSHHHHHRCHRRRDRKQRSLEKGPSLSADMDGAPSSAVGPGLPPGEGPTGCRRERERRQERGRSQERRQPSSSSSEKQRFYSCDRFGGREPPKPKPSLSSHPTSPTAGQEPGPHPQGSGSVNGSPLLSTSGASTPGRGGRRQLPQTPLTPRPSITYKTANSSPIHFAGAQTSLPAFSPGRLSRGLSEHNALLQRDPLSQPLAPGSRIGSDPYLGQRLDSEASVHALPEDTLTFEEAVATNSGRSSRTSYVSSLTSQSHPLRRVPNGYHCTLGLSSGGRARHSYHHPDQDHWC

inhibition at 30 µM (KCNQ2 channels)	Compound	KCNQ2 activity (in words) (KCNQ2 channels)	also measured
	CC[C@H](C(=O)Nc1ccccc1N1CCCC1)c1ccccc1 [(S)-5, (S)-2-Phenyl-N-(2-(pyrrolidin-1-yl)phenyl)butanamide]		concentration at 1 h [1]: 672 nM; potassium channel hERG binding (in words) (potassium channel (hERG)): not inhibited; calcium channel N-type binding (in words) (calcium channel, N-type): not inhibited; calcium channel L-type binding (in words) (calcium channel, L-type): not inhibited; potassium channel KATP binding (in words) (potassium channel (KATP)): not inhibited; Rat CLHEP (Intrinsic clearance): 67.3 mL/min/kg
	O=C1c2ccccc2C(Cc2ccncc2)(Cc2ccncc2)c2ccccc21 [compound 1, XE-991, reference compound]		fold more potent compared to previous values (KCNQ2 channels; [3]): 8 – 10 fold
	O=C1N(c2ccccc2)c2ccccc2C1(Cc1ccncc1)Cc1ccncc1 [compound 2, Linopirdine, reference compound]		fold more potent compared to previous values (KCNQ2 channels; [3]): 8 – 10 fold
	c1ccc(C(NCc2cccnc2)(c2ccccc2)c2ccccc2)cc1 [compound 3, UCL2077, reference compound]		fold less potent compared to previous values (KCNQ2 channels; [3]): ~ 7 fold
	CCC(C(=O)Nc1ccccc1N1CCCC1)c1ccccc1 (stereo not drawn) [compound 5]		activity in four MLPCN assays not dependent on KCNQ2 [2]: > 15 µM
25.4%	CC(C)C(C(=O)Nc1ccccc1N1CCCC1)c1ccccc1 (stereo not drawn) [compound 9]	not tolerated	
	O=C(Nc1ccccc1N1CCCC1)C1(c2ccccc2)CC1 [compound 14]	not tolerated	
	CC(C)(C(=O)Nc1ccccc1N1CCCC1)c1ccccc1 [compound 15]	not tolerated	
	O=C(Nc1ccccc1N1CCCC1)C1CCOc2ccccc21 (stereo not drawn) [compound 16]	not tolerated	
38%	CCC(NC(=O)c1ccccc1N1CCCC1)c1ccccc1 (stereo not drawn) [compound 17]	complete loss of activity	
	CCC(C(=O)N(C)c1ccccc1N1CCCC1)c1ccccc1 (stereo not drawn) [compound 18]	complete loss of activity	
	CCC(C(=O)Nc1ccccc1N1CCCC1)c1ccc(OC)c(OC)c1 (stereo not drawn) [compound 19]		fold loss of potency (KCNQ2 channels): 125 fold
	CCC(C(=O)Nc1ccccc1N1CCCC1)c1ccccc1Cl (stereo not drawn) [compound 30]		fold loss of potency (KCNQ2 channels): 20 fold
	O=C(Cc1cccc(Cl)c1)Nc1cccc(N2CCCC2)c1 [compound 45]		fold loss of activity (KCNQ2 channels; KCNQ2 activator series, 3-pyrrolidine vs 2-pyrrolidine): ~ 5 fold
32%	CCC(C(=O)Nc1ccccc1N1CCCCC1)c1ccccc1 (stereo not drawn) [compound 48]	loss of activity	
	O=C(Cc1cccc(Cl)c1)Nc1ccccc1N1CCCCC1 [compound 49]	loss of activity	
59.8%	CCC(C(=O)Nc1ccccc1N(C)C)c1ccccc1 (stereo not drawn) [compound 56]		
28.1%	CCC(C(=O)Nc1ccccc1OC)c1ccccc1 (stereo not drawn) [compound 63]		
27.1%	CCC(C(=O)Nc1ccccc1N(C)Cc1ccccc1)c1ccccc1 (stereo not drawn) [compound 64]		
